Patent US20200017495A1, “NOVEL HETEROCYCLIC COMPOUNDS AND THEIR USE IN PREVENTING OR TREATING BACTERIAL INFECTIONS” (priority 2017, published 2020)
Like-named read-outs stand apart in the source and are kept apart here.

Columns and labels:
Format in all cases: cell-based
[1] = tested on: Citrobacter freundii (CFR) isolates; experiment: MIC of compounds alone and combined with antibacterials, broth microdilution (CLSI)
Method: (§1) Method 2: MIC of Compounds Alone and Combined with Antibacterials Against Bacterial Isolates
(§2) Compounds of the present invention were assessed against genotyped bacterial strains (Table 3, 4) alone or in combination with an antibacterial (Table 2). […] Log phase bacterial suspensions were adjusted to a final density of 5.10^5 CFU/mL in cation-adjusted Mueller-Hinton broth (ca-MHB; Becton-Dickinson and Company) and added to each well (98 μL). Microplates were incubated for 16-20 h at 35° C. in ambient air. The MIC of the compounds was defined as the lowest concentration of said compounds that prevented bacterial growth as read by visual inspection. The MIC of ATB at each compound concentration was defined as the lowest concentration of ATB that prevented bacterial growth as read by visual inspection.

[2] = tested on: Citrobacter koseri (CKR) isolates; experiment: as above
Method: as §1, §2

[3] = tested on: Enterobacter aerogenes (EAE) isolates; experiment: as above
Method: as §1, §2

[4] = tested on: Morganella morganii (MMO) isolates; experiment: as above
Method: as §1, §2

[5] = tested on: Proteus mirabilis (PMI) isolates; experiment: microbe, parasite or virus in culture
Outline: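 First, log-phase suspensions are brought to 5.10^5 CFU/mL final in ca-MHB; plates then incubate 16-20 h at 35° C in air. Growth is judged visually, giving the compound MIC alone and the antibacterial MIC at each compound concentration.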

Compound: CC1(C)S[C@@H]2[C@H](NC(=O)[C@H](N)c3ccc(O)cc3)C(=O)N2[C@H]1C(=O)O [AMX, Amoxicillin]
- MIC ATB in combination ([1]; CFR UFR10, AF2 @ 8 μg/mL): 1 µg/mL
- MIC ATB in combination ([1]; CFR UFR10, CLA @ 4 μg/mL): >128 µg/mL
- MIC ATB in combination ([1]; CFR UFR11, AF2 @ 8 μg/mL): >128 µg/mL
- MIC ATB in combination ([1]; CFR UFR11, CLA @ 4 μg/mL): >128 µg/mL
- MIC ATB in combination ([1]; CFR UFR37, AF2 @ 8 μg/mL): <0.25 µg/mL
- MIC ATB in combination ([1]; CFR UFR37, CLA @ 4 μg/mL): >128 µg/mL
- MIC ATB in combination ([1]; CFR UFR83, AF2 @ 8 μg/mL): >128 µg/mL
- MIC ATB in combination ([1]; CFR UFR83, CLA @ 4 μg/mL): >128 µg/mL
- MIC ATB in combination ([1]; CFR UFR146, CLA @ 4 μg/mL): >128 µg/mL
- MIC ATB in combination ([1]; CFR UFR248, CLA @ 4 μg/mL): >128 µg/mL
- MIC ATB in combination ([1]; CFR UFR249, CLA @ 4 μg/mL): >128 µg/mL
- MIC ATB in combination ([1]; CFR UFR250, CLA @ 4 μg/mL): 128 µg/mL
- MIC ([1]; strain CFR UFR10, genotype OXA-48): >256 µg/mL
- MIC ([1]; strain CFR UFR11, genotype TEM-1, OXA-1, OXA-48): >256 µg/mL
- MIC ([1]; strain CFR UFR37, genotype TEM-1, CTX-M-15, NDM-1): >256 µg/mL
- MIC ([1]; strain CFR UFR83, genotype TEM-3, AmpC): >256 µg/mL
- MIC ([1]; strain CFR UFR146, genotype TEM-1, KPC-2): >128 µg/mL
- MIC ([1]; strain CFR UFR147, genotype TEM-1, CTX-M-15, OXA-1, OXA-181, OXA-10, OXA-9, NDM-1, ArmA, dfrA12, aadA2, antibiotic alone): >128 µg/mL
- MIC ATB in combination ([1]; strain CFR UFR147, with CLA @ 4 μg/mL): >128 µg/mL
- MIC ([1]; strain CFR UFR148, genotype TEM-1, TEM-2, CTX-M-15, NDM-1, antibiotic alone): >128 µg/mL
- MIC ATB in combination ([1]; strain CFR UFR148, with CLA @ 4 μg/mL): >128 µg/mL
- MIC ([1]; strain CFR UFR248, genotype CTX-M-15): >128 µg/mL
- MIC ([1]; strain CFR UFR249, genotype TEM-1, CTX-M-15): >128 µg/mL
- MIC ([1]; strain CFR UFR250, genotype TEM-1, SHV-28, CTX-M-15): >128 µg/mL
- MIC ([1]; strain CFR UFR251, genotype SHV-11, VIM-1, antibiotic alone): >128 µg/mL
- MIC ATB in combination ([1]; strain CFR UFR251, with CLA @ 4 μg/mL): >128 µg/mL
- MIC ([1]; strain CFR UFR252, genotype VIM-2, antibiotic alone): >128 µg/mL
- MIC ATB in combination ([1]; strain CFR UFR252, with CLA @ 4 μg/mL): >128 µg/mL
- MIC ([1]; strain CFR UFR253, genotype TEM-1, SHV-12, OXA-48): >128 µg/mL
- MIC ATB in combination ([1]; strain CFR UFR253, with CLA @ 4 μg/mL): >128 µg/mL
- MIC ([1]; strain CFR UFR254, genotype VEB-1b, OXA-48, qnrA): >128 µg/mL
- MIC ATB in combination ([1]; strain CFR UFR254, with CLA @ 4 μg/mL): >128 µg/mL
- MIC ATB in combination [2]: >128 µg/mL
- MIC ATB in combination ([2]; CKO ROU, AF2 @ 8 μg/mL): 8 µg/mL
- MIC ([2]; strain CKO ROU, genotype TEM-1, SHV-12, CTX-M-15, OXA-1, OXA-48): >256 µg/mL
- MIC ([2]; strain CKO UFR149, genotype OXA-48): >128 µg/mL
- MIC ([2]; strain CKO UFR150, genotype TEM-1, OXA-48): >128 µg/mL
- MIC ATB in combination ([3]; EAE 49469, AF2 @ 8 μg/mL): <=0.25 μg/mL
- MIC ATB in combination ([3]; EAE 49469, CLA @ 4 μg/mL): >128 µg/mL
- MIC ATB in combination ([3]; EAE 200261, AF2 @ 8 μg/mL): 16 µg/mL
- MIC ATB in combination ([3]; EAE 200261, CLA @ 4 μg/mL): >128 µg/mL
- MIC ATB in combination ([3]; EAE UFR199, CLA @ 4 μg/mL): >128 µg/mL
- MIC ATB in combination ([3]; EAE UFR201, CLA @ 4 μg/mL): 16 µg/mL
- MIC ATB in combination ([3]; EAE UFR202, CLA @ 4 μg/mL): >128 µg/mL
- MIC ATB in combination ([3]; EAE UFR207, CLA @ 4 μg/mL): 32 µg/mL
- MIC ATB in combination ([3]; EAE UFR213, CLA @ 4 μg/mL): >128 µg/mL
- MIC ([3]; strain EAE 49469, genotype AmpC): >1024 µg/mL
- MIC ([3]; strain EAE 200261, genotype TEM-x, AmpC): >256 µg/mL
- MIC ([3]; strain EAE UFR199, genotype TEM-1b, SHV-12, KPC-2, OXA-9): >128 µg/mL
- MIC ([3]; strain EAE UFR201, genotype TEM-1, SHV-12, CTX-M-15): >128 µg/mL
- MIC ([3]; strain EAE UFR202, genotype TEM-24): >128 µg/mL
- MIC ([3]; strain EAE UFR213, genotype TEM-24): >128 µg/mL
- MIC [4]: >128 µg/mL
- MIC ATB in combination [4]: >128 µg/mL
- MIC ([4]; strain MMO 200321, genotype TEM-1, CTX-M-15, OXA-1): >256 µg/mL
- MIC ([4]; strain MMO UFR144, genotype TEM-1, CTX-M-15): >128 µg/mL
- MIC ([4]; strain MMO UFR240, genotype CTX-M-9): >128 µg/mL
- MIC ([4]; strain MMO UFR241, genotype TEM-1, CTX-M-15): >128 µg/mL
- MIC ([4]; strain MMO UFR242, genotype TEM-52): >128 µg/mL
- MIC ATB in combination ([5]; PMI UFR82, AF2 @ 8 μg/mL): <0.25 µg/mL
- MIC ATB in combination ([5]; PMI UFR126, CLA @ 4 μg/mL): 16 µg/mL
- MIC ATB in combination ([5]; PMI UFR127, CLA @ 4 μg/mL): 32 µg/mL
- MIC ATB in combination ([5]; PMI UFR129, CLA @ 4 μg/mL): 2 µg/mL
- MIC ATB in combination ([5]; PMI UFR237, CLA @ 4 μg/mL): 4 µg/mL
- MIC ([5]; strain PMI UFR82, genotype CMY-2): 256 µg/mL
- MIC ([5]; strain PMI UFR120, genotype TEM-1, SHV-11, CTX-M-14): >128 µg/mL
- MIC ([5]; strain PMI UFR121, genotype TEM-1, TEM-52): >128 µg/mL
- MIC ([5]; strain PMI UFR122, genotype TEM-1, CTX-M-15): >128 µg/mL
- MIC ([5]; strain PMI UFR123, genotype CTX-M-1): >128 µg/mL
- MIC ([5]; strain PMI UFR124, genotype CTX-M-2): >128 µg/mL
- MIC ([5]; strain PMI UFR125, genotype CTX-M-71): >128 µg/mL
- MIC ([5]; strain PMI UFR126, genotype TEM-2, PER-1): >128 µg/mL
- MIC ([5]; strain PMI UFR127, genotype VEB-1): >128 µg/mL
- MIC ([5]; strain PMI UFR128, genotype VEB-1, OXA-10): >128 µg/mL
- MIC ([5]; strain PMI UFR129, genotype TEM-1, VEB-6): >128 µg/mL
- MIC ([5]; strain PMI UFR130, genotype CMY-2): >128 µg/mL
- MIC ([5]; strain PMI UFR131, genotype CMY-16, OXA-1, OXA-10, NDM-1, ArmA): >128 µg/mL
- MIC ([5]; strain PMI UFR132, genotype VEB-6, DHA-1, NDM-1, AphA6, AacA4): >128 µg/mL
- MIC ([5]; strain PMI UFR133, genotype OXA-23): >128 µg/mL
- MIC ([5]; strain PMI UFR237, genotype VEB-6): >128 µg/mL
